Measured values: patent US8993624B2, “Method of preventing and treating inflammatory diseases and disorders with abscisic acid” (Virginia Tech Intellectual Properties, Inc., priority 2010, dated 2015)

Experiments:
NF-κB = NF-κB activity in spleens of LPS-challenged mice; format: in vivo, mouse; conditions: spleen
Procedure: (§1) NF-κB and NFAT activities—Spleens were diced into smaller pieces in lysis buffer containing dithiothreitol and a protease inhibitor cocktail and then further disrupted using a dounce ground glass homogenizer at 4° C. Nuclear extraction for tissue homogenate and BMM was performed using the Nuclear Extract kit (Active Motif, Carlsbad, Calif.) per the manufacturer's instructions. The extracts were used to perform a Bradford-based assay for quantifying the protein concentrations and stored at −80° C. NF-κB and NFATc1 activities were measured as previously described (13) by using the Trans-AM™ NF-κB p65 and the Trans-AM™ NFATc1 ELISA-based assays (Active Motif), respectively per the manufacturer's instructions.

PPAR γ [1] = biological target: T1, PPAR γ (Mus musculus, UniProt P37238); conditions: racemic mixture, 3T3-L1 preadipocytes; cited from earlier work
T1 construct: host or cells: 3T3-L1 preadipocytes
T1 sequence (P37238 1-505): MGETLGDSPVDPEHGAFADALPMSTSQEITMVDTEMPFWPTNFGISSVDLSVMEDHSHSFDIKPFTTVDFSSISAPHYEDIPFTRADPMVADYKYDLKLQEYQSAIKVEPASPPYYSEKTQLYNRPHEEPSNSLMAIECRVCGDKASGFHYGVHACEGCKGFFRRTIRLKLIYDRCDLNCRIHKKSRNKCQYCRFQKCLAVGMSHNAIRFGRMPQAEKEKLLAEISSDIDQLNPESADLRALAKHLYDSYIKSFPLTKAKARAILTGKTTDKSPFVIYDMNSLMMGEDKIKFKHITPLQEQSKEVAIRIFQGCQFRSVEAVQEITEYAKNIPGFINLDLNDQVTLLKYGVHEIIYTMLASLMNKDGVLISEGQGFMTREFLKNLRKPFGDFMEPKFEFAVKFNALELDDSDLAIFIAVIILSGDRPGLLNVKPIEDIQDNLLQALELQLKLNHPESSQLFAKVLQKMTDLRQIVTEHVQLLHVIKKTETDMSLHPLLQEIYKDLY

Influenza A/Udorn (H3N2) = assay: Post-exposure ABA by gavage, Influenza A/Udorn challenge in mice; format: in vivo, mouse
NFATc1 = NFATc1 activity in spleens of LPS-challenged mice; format: in vivo, mouse; conditions: spleen
Procedure: as §1

PPAR γ [2] = assay: LANCL2 siRNA and PPAR γ co-transfections in RAW macrophages; format: cell-based
Procedure: LANCL2 siRNA and PPAR γ co-transfections—RAW macrophages were transfected with the PPAR γ plasmid as described in the preceding section with or without LANCL2 siRNA. Specifically, RAW macrophages were then co-transfected with 0.2-μg plasmid DNA and 0.25 μL LANCL2 siRNA (20 μM) per well using the Lipofectamine 2000 transfection reagent (Invitrogen). […] After incubation, RAW macrophages were harvested in reporter lysis reagent and luciferase activity was determined as described above. LANCL2 mRNA was measured by RT-PCR in control wells to assess the efficiency of knockdown.

[3] = system: LPS-induced splenic gene expression; assay: LPS challenge in mice, spleen microarray and network analysis
Description: Microarray data analysis—After homogenization of spleens, total RNA was extracted and purified using the RNAeasy system according to manufacturer's instructions (Qiagen Valencia, Calif.). The QIAGEN RNase-free DNase supplement kit was used to ensure that the RNA was free from DNA contamination. RNA was then processed and labeled according to the standard target labeling protocols and the samples were hybridized, stained, and scanned per standard Affymetrix protocols at VBI core laboratory on Mouse 430 2.0 expression arrays (Affymetrix Inc., Santa Clara, Calif.). All statistical analysis of the data was performed within the R statistical environment—Version 2.9.0 (24) using Bioconductor packages (25)]. Raw microarray data from CEL files were read with ‘affy’ package (26) and pre-processed by gcRMA algorithm (GC Robust Multiarray Average) that performs the three steps: (i) adjustment of the gene expression signal against the background caused by optical noise and non-specific binding, (ii) robust multi-array normalization (27), and (iii) summarization of the probes belonging to each probe set. Empirical Bayes adjustment was applied and p-values were corrected for multiple testing. […] The selected list of genes was analysed with hypergeometric testing that applies Fisher's exact test to find association between interesting genes and membership within the KEGG pathway(s).
The experiment followed a 2×2 factorial design with 2 factors: LPS and ABA, each with 2 levels: absence and presence. Thus there were four groups of mice: LPS & ABA, LPS & control, no LPS & control, no LPS & ABA. The design matrix, constructed in the package ‘limma’, defined coefficients for LPS main effect, ABA main effect and the interaction effect. […] These 43 probe sets were uploaded to IPA8.0 for Ingenuity Pathway Analysis (Ingenuity Systems, Redwood City, Calif.).

[4] = system: inactivated influenza virus PR8 antigens; assay: Lymphocyte proliferation after influenza virus vaccination of mice; format: in vivo, mouse
[5] = system: CD3/CD28-stimulated splenocytes; assay: Intracellular cAMP and mRNA in CD3/CD28-stimulated splenocytes; format: cell-based, mouse
Procedure: Intracellular cAMP in CD3/CD28-stimulated splenocytes and LPS-stimulated macrophages—Spleens were excised from C57BL6/J mice under sterile conditions. Cells were released by disrupting the tissue between frosted glass slides and red blood cells were lysed with erythrocyte lysis buffer. Splenocytes were enumerated with a Coulter Counter (Beckman Coulter, Fullerton, Calif.) and seeded in cRPMI at 1×10^6/ml onto 24-well plates pre-coated with anti-mouse CD3 (5 μg/mL; BD Pharmingen) and anti-mouse CD28 (1 μg/mL; BD Pharmingen). […] For intracellular assessment of cAMP, cells were harvested into 0.1 M HCl and the lysates were collected. The cAMP concentration of the lysates was determined using an EIA kit (Assay Designs, Ann Arbor, Mich.).

[6] = network analysis, LPS challenged mice

CC1=CC(=O)CC(C)(C)C1(O)/C=C/C(C)=C\C(=O)O (racemic) [ABA, abscisic acid]
NF-κB activity (NF-κB): did not affect
PPAR γ activation (PPAR γ [1]): activates PPAR γ
weight loss (Influenza A/Udorn (H3N2); 50 mg/kg): slightly suppressed weight loss, although the differences were not statistically significant
weight loss and recovery (Influenza A/Udorn (H3N2); 100 mg/kg oral gavage once daily 10 days, from 4 hours post-infection): suppressed weight loss for both strains and accelerated recovery
accumulation of pro-inflammatory tipDC in lung (Influenza A/Udorn (H3N2); 100 mg/kg, 7 dpi, FACS): lowered the accumulation of pro-inflammatory tipDC
expression of MCP-1 in lungs (Influenza A/Udorn (H3N2); 3 and 7 dpi): lowered expression of MCP-1
pulmonary angiopoietin like 4 (ANGIOPL4) mRNA expression (Influenza A/Udorn (H3N2); day 7 post-infection): upregulated
pulmonary interleukin-10 (IL-10) mRNA expression (Influenza A/Udorn (H3N2); day 7 post-infection): upregulated
pulmonary 5-LOX activating protein (FLAP) expression (Influenza A/Udorn (H3N2); day 10 post-infection): upregulation
pulmonary 5-lipooxygenase (5-LOX) expression (Influenza A/Udorn (H3N2); day 10 post-infection): upregulation
pulmonary LANCL2 expression (Influenza A/Udorn (H3N2); day 10 post-infection): upregulation
pulmonary PPAR γ expression (Influenza A/Udorn (H3N2); day 10 post-infection): upregulation
epithelial necrosis (Influenza A/Udorn (H3N2); lung, WT): ameliorated
mucosal and submucosal inflammatory cell infiltration (Influenza A/Udorn (H3N2); lung, WT): ameliorated
perivascular cuffing (Influenza A/Udorn (H3N2); lung, WT): ameliorated
terminal airway infiltration (Influenza A/Udorn (H3N2); lung, WT): ameliorated
beneficial effects on lung inflammatory lesions (Influenza A/Udorn (H3N2); mice lacking PPAR γ in myeloid cells (myeloid KO)): abrogated
LPS-mediated activation of NFATc1 (NFATc1): significantly decreased
PPAR γ reporter activity (PPAR γ [2]; normal LANCL2, ABA 1.25-10 μM, Ros 1 or 10 μM, vs untreated cells): significantly elevated PPAR γ
PPAR γ reporter activity (PPAR γ [2]; with LANCL2 siRNA): neither ABA nor Ros significantly affected PPAR γ activity
magnitude of LPS-modulated gene expression (fold-change) ([3]; 64 genes, spleen): attenuated
ABA effect on LPS-induced gene expression ([3]; absence of functional immune cell PPAR γ): impaired (or abrogated)
nuclear receptors (PPAR γ, PPAR α, RXRα, RXRβ) [3, 6]: up-regulation
pro-inflammatory genes (IL-6, IL-1β, MIF and IFN-γ) [3, 6]: down-regulation
expression of IL-6, IFN-γ, TNF-α induced protein 2 and chemokine ligand 11 ([3]; spleen, 6 hours post LPS): down-regulated
antigen-specific lymphoproliferative recall responses ([4]; ABA diet 100 mg/kg, days 14 and 21 post-vaccination): increased
immunostimulatory effect on responses to influenza vaccination ([4]; mice lacking PPAR γ in immune cells): attenuated
LANCL2 mRNA expression [5]: not LANCL2 mRNA expression
PPAR γ expression [5]: upregulation of PPAR γ
intracellular cAMP ([5]; ABA 10 μM): significantly increased intracellular cAMP
phosphodiesterase activity ([5]; data not shown): without affecting phosphodiesterase activity
